Patent US8841456B2, “1,5-naphthyridine derivative or salt thereof” (FUJIFILM Corporation, priority 2011, dated 2014)
Like-named read-outs stand apart in the source and are kept apart here.

Legend:
[1] = target: T1, human PI3Kα protein (Homo sapiens, UniProt P42336); assay: PI3Kα enzyme assay (ADP-Glo kinase assay); format: biochemical; settings: 3 nM PI3Kα, 50 μM PIP2, 100 μM ATP
T1 construct: purchased Carna Biosciences, Inc; host or cells: Baculovirus expression system
How it was run: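 Baculovirus-expressed biotinylated human PI3Kα (3 nM) preincubated 15 min with compound in Tris pH 7.5, MgCl2, BSA, then reacted 60 min at 25 °C with 50 μM PIP2 and 100 μM ATP. ADP quantified by ADP-Glo luminescence; IC50 calculated.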

[2] = target: T2, glutathione S-transferase (GST)-fusion human ERK2 protein (Homo sapiens, UniProt P28482); assay: ERK2 enzyme assay (LabChip mobility shift); format: biochemical; settings: 2 nM ERK2, 4.25 μM FL-Peptide 8, 43 μM ATP
T2 construct: purchased Carna Biosciences, Inc; host or cells: E. coli expression system
How it was run: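 GST-tagged human ERK2 from E. coli, at 2 nM, was preincubated 15 min at room temperature with compound in Hepes pH 7.5 with MgCl2, DTT and Brij35. The reaction ran 120 min at 25 °C with 4.25 μM FL-Peptide 8 and 43 μM ATP (final). Phosphopeptide fraction was measured by mobility-shift separation to give IC50.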

[3] = tested on: Human colon cancer cell line (HCT116); assay: Cell growth inhibition test (Celltiter-Glo); format: cell-based; settings: HCT-116, IC50 class, 72 hours culture, viable cells by Celltiter-Glo
Method: Evaluation of the cell proliferation inhibitory activity of the compound of the present invention was carried out according to the method below. Human colon cancer cell line (HCT116) McCoy's 5A (INVITROGEN)+Final Concentration 10% FBS+GLUTA Max (INVITROGEN) Celltiter-Glo™ Luminescent Cell Viability Assay (Promega Corporation) HCT116 was seeded on a 96-well culture microplate (Corning Inc.) at 750/well (90 uL/well), and a compound for evaluation (final concentration: 25.00 μM to 0.01 μM, 3-fold common ratio 8 points) was added thereto. After culturing in a CO2 incubator (37° C.) for 72 hours, the number of viable cells were calculated by Celltiter-Glo. For the measurement of luminescence intensity, EnVision (PerkinElmer, Inc.) was used. The inhibitory activity of the compound was calculated using IC50 (50% inhibitory concentration). The IC50 was calculated using XLfit (IDBS). The results of IC50 were evaluated according to the following evaluation criteria.

[4] = IC50 class, read-out: PI3Kα Inhibitory Activity
[5] = IC50 class, read-out: ERK2 Inhibitory Activity

T2 sequence (P28482 whole entry, the tested form may be a part): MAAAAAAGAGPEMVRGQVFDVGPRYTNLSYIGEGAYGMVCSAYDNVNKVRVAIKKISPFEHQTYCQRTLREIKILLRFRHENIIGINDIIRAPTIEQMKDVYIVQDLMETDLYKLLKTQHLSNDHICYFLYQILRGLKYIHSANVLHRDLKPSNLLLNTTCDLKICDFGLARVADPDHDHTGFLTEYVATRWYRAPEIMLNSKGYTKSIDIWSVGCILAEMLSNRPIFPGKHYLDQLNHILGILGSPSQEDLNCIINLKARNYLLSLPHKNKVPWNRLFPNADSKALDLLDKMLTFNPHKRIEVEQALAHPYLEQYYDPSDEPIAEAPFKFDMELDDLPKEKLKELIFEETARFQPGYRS
T1 sequence (P42336 whole entry): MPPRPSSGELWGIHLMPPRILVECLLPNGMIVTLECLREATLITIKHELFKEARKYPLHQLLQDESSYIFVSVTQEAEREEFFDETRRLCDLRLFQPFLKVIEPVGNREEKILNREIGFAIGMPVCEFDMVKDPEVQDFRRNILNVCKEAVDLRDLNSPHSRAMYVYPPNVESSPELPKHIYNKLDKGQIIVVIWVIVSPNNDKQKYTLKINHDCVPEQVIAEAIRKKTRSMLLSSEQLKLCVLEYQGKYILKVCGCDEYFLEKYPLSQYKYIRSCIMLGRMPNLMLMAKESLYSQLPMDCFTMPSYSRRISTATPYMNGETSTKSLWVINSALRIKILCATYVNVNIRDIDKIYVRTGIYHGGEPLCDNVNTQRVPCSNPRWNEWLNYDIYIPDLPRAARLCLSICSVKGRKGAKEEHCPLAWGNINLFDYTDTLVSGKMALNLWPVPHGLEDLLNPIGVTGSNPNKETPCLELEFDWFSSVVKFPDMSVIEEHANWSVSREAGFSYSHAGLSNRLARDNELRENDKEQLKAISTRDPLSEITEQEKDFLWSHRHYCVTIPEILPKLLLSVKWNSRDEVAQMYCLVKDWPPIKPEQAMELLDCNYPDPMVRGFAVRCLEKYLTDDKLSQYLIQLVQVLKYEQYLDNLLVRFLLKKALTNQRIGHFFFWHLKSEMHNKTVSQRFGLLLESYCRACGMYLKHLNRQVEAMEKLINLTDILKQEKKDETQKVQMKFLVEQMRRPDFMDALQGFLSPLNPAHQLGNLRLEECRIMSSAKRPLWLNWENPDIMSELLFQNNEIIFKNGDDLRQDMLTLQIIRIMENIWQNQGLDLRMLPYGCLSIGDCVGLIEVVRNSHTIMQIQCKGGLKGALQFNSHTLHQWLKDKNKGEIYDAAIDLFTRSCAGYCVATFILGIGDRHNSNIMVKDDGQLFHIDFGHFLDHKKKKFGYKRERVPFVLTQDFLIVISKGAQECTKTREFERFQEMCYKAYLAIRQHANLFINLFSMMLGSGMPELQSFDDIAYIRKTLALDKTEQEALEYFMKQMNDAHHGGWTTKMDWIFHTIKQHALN
T1 sequence (P27986 whole entry partner): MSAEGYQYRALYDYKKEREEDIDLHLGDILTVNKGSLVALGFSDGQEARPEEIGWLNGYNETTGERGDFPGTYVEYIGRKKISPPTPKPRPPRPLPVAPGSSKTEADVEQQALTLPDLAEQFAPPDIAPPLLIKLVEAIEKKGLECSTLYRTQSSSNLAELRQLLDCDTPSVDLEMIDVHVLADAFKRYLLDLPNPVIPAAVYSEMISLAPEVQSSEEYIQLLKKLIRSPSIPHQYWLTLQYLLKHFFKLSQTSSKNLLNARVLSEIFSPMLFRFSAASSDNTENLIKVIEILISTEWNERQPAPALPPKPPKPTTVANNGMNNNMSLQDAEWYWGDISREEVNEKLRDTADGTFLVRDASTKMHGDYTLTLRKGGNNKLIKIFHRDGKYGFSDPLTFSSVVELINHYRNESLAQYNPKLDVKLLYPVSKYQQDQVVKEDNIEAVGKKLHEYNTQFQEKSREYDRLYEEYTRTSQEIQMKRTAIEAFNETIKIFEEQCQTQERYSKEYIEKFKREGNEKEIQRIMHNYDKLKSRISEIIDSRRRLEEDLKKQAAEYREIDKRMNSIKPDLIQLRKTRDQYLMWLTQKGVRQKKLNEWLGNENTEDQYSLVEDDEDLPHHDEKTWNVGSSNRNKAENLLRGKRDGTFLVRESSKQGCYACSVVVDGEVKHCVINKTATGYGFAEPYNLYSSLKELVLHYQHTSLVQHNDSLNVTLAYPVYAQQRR

IC50 [1, 4]	IC50 [2, 5]	IC50 [3]	IC50 ([1]; read-out: PI3Kα, IC50)	IC50 ([2]; read-out: ERK2, IC50)	Compound
< 100 nM	100 to 1000 nM	< 1000 nM	–	–	O=C(Nc1ccc2ncc(N3CCN(c4cccnc4)CC3)cc2n1)NC1CCCC1 [Compound 0157]
100 to 1000 nM	< 100 nM	1000 to 10000 nM	–	–	O=C(Nc1ccc2ncc(-c3cccc(CO)c3)cc2n1)NC1CCCC1 [Compound 0041]
< 100 nM	< 100 nM	1000 to 10000 nM	–	–	O=C(Nc1ccc2ncc(-c3ccccn3)cc2n1)NC1CCCC1 [Compound 0136]
< 100 nM	100 to 1000 nM	< 1000 nM	–	–	CN1CCC(n2cc(-c3cnc4ccc(NC(=O)NC5(C)CCCC5)nc4c3)cn2)CC1 [Compound 0255]
100 to 1000 nM	100 to 1000 nM	< 1000 nM	–	–	O=C(Nc1ccc2ncc(N3CCN(c4ccccn4)CC3)cc2n1)NC1CCCC1 [Compound 0154]
< 100 nM	100 to 1000 nM	< 1000 nM	–	–	O=C(Nc1ccc2ncc(N3CCN(c4ccncc4)CC3)cc2n1)NC1CCCC1 [Compound 0158]
< 100 nM	100 to 1000 nM	1000 to 10000 nM	–	–	O=C(Nc1ccc2ncc(N3CCOC3=O)cc2n1)NC1CCCC1 [Compound 0046]
< 100 nM	100 to 1000 nM	1000 to 10000 nM	–	–	CC(=O)N1CCN(c2cnc3ccc(NC(=O)NC4CCCC4)nc3c2)CC1 [Compound 0148]
> 10000 nM	> 10000 nM	–	–	–	O=C(Nc1ccc2ncc(C(=O)N3CCOCC3)cc2n1)NC1CCCC1 [Compound 0141]
< 100 nM	< 100 nM	–	–	–	COCCN(CCOC)CCn1cc(-c2cnc3ccc(NC(=O)NC4CCCC4)nc3c2)cn1 [Compound 0048]
100 to 1000 nM	< 100 nM	–	–	–	O=C(Nc1ccc2ncc(-c3cn[nH]c3)cc2n1)N[C@H]1CCc2ccccc21 [Compound 0077]
< 100 nM	< 100 nM	–	–	–	CN1CCC(n2cc(-c3cnc4ccc(NC(=O)NC5CCCC5)nc4c3)cn2)CC1 [Compound 0228]
100 to 1000 nM	< 100 nM	–	–	–	COc1ccc(CCCCNC(=O)Nc2ccc3ncc(-c4cn[nH]c4)cc3n2)cc1 [Compound 0173]
< 100 nM	< 100 nM	–	–	–	CC(C)[C@H](C)NC(=O)Nc1ccc2ncc(-c3cn[nH]c3)cc2n1 [Compound 0083]
< 100 nM	100 to 1000 nM	–	–	–	O=C(Nc1ccc2ncc(N3CC(OCCN4CCOCC4)C3)cc2n1)NC1CCCC1 [Compound 0241]
< 100 nM	< 100 nM	–	–	–	CC(C)NC(=O)Nc1ccc2ncc(-c3cn[nH]c3)cc2n1 [Compound 0053]
100 to 1000 nM	< 100 nM	–	–	–	O=C(NCCc1ccccc1)Nc1ccc2ncc(-c3cn[nH]c3)cc2n1 [Compound 0089]
< 100 nM	100 to 1000 nM	–	–	–	CCN(CC)CCn1cc(-c2cnc3ccc(NC(=O)NC4CCCC4)nc3c2)cn1 [Compound 0025]

IC50 [1, 4]	IC50 [2, 5]	IC50 [3]	IC50 ([1]; read-out: PI3Kα, IC50)	IC50 ([2]; read-out: ERK2, IC50)	Compound
< 100 nM	100 to 1000 nM	–	–	–	C[C@@H](CN(C)C)Cn1cc(-c2cnc3ccc(NC(=O)NC4CCCC4)nc3c2)cn1 [Compound 0245]
100 to 1000 nM	1000 to 10000 nM	–	–	–	O=C(Nc1ccc2ncc(Oc3cnccn3)cc2n1)NC1CCCC1 [Compound 0224]
100 to 1000 nM	100 to 1000 nM	–	–	–	C[C@H](C[C@H](C)NC(=O)Nc1ccc2ncc(-c3cn[nH]c3)cc2n1)Oc1ccccc1 [Compound 0162]
< 100 nM	< 100 nM	–	–	–	S=C(Nc1ccc2ncc(-c3cnn(CCN4CCNCC4)c3)cc2n1)NC1CCCC1 [Compound 0222]
< 100 nM	< 100 nM	–	–	–	O=C(Nc1ccc2ncc(-c3cnco3)cc2n1)NC1CCCC1 [Compound 0239]
< 100 nM	< 100 nM	–	84 nM	42 nM	COc1ccc(-c2cnc3ccc(NC(=O)NC4CCCC4)nc3c2)cc1OC [Compound 0002]
< 100 nM	< 100 nM	–	–	–	CCCCNC(=O)Nc1ccc2ncc(-c3cn[nH]c3)cc2n1 [Compound 0093]
100 to 1000 nM	< 100 nM	–	–	–	O=C(NCC1CCCCC1)Nc1ccc2ncc(-c3cn[nH]c3)cc2n1 [Compound 0063]
< 100 nM	< 100 nM	–	–	–	O=C(Nc1ccc2ncc(-c3cn[nH]c3)cc2n1)NC1CCC(Oc2ccccc2)C1 (stereo not shown) [Compound 0092]
< 100 nM	100 to 1000 nM	–	–	–	C[C@@H]1CN(c2cnc3ccc(NC(=O)NC4CCCC4)nc3c2)C[C@H](C)O1 [Compound 0085]
100 to 1000 nM	< 100 nM	–	133 nM	< 3 nM	O=C(Nc1ccc2ncc(-c3cn[nH]c3)cc2n1)NC1CCN(Cc2ccccc2)C1 (stereo not shown) [Compound 0069]
< 100 nM	1000 to 10000 nM	–	–	–	COc1cc(Nc2cnc3ccc(NC(=O)NC4CCCC4)nc3c2)cc(OC)c1 [Compound 0031]
100 to 1000 nM	< 100 nM	–	–	–	O=C(Nc1ccc2ncc(-c3cccc(O)c3)cc2n1)NC1CCCC1 [Compound 0033]
1000 to 10000 nM	1000 to 10000 nM	–	–	–	O=C(Nc1ccc2ncc(-c3cnc4ccccc4c3)cc2n1)NC1CCCC1 [Compound 0121]
< 100 nM	< 100 nM	–	–	–	O=C(Nc1ccc2ncc(-c3cnn(CCCN4CCNCC4)c3)cc2n1)NC1CCCC1 [Compound 0212]
100 to 1000 nM	< 100 nM	–	–	–	C[C@@H](NC(=O)Nc1ccc2ncc(-c3cn[nH]c3)cc2n1)c1ccccc1 [Compound 0139]
< 100 nM	< 100 nM	–	–	–	CN1CCN(CCn2cc(-c3cnc4ccc(NC(=O)NC5CCCC5)nc4c3)cn2)CC1 [Compound 0223]

Compound	IC50 [1, 4]	IC50 [2, 5]	IC50 [3]	IC50 ([1]; read-out: PI3Kα, IC50)	IC50 ([2]; read-out: ERK2, IC50)
CCCC(C)(C)NC(=O)Nc1ccc2ncc(-c3cnn(CCCN4CCOCC4)c3)cc2n1 [Compound 0182]	< 100 nM	< 100 nM	< 1000 nM	–	–
CN(C)CC(C)(C)Cn1cc(-c2cnc3ccc(NC(=O)NC4CCCC4)nc3c2)cn1 [Compound 0243]	< 100 nM	100 to 1000 nM	< 1000 nM	–	–
